The record followed here is US20040224020A1, “Oral dosage forms with therapeutically active agents in controlled release cores and immediate release gelatin capsule coats” (priority 2002, published 2004).

Molecules are shown by their SMILES.

On series [1], the source says:
Where the controlled release core is in the form of a liquid, the amount and type of solvent used with SAIB should be optimized so as to obtain a liquid wherein the at least one therapeutically active agent is acceptably soluble.
In order to obtain a soluble liquid fill, the amounts of (i) SAIB, (ii) at least one biocompatible solvent, and (iii) at least one therapeutically active agent is optimized.

A short description of series [2]: Viscosity of SAIB/solvent compositions, Cannon-Fenske viscometer. The note with it: Cannon-Fenske viscometer of size 200 at 30° C. The format is physicochemical.

As to `CC(C)Cc1ccc(C(C)C(=O)O)cc1` (centres unmarked) [ibuprofen], in series [1], the “ethanol required to achieve solubility with SAIB” value is “approximately 15 % (by weight)”.
Consider `CCO` [ethanol], for which the “viscosity (centipoises value)” value in series [2] is reported as 1.3 centipoises.
